In ChEMBL document CHEMBL2176973, “Synthesis and SAR Studies of Fused Oxadiazines as γ-Secretase Modulators for Treatment of Alzheimer's Disease” (ACS Med Chem Lett, 2012):
pIC50: −log10 of the molar value. The source made the active and inactive calls. The rule behind the calls is not given here.

Columns and labels:
Gamma-secretase = test: Modulation of gamma-secretase expressed in HEK293 cells co-expressing APPsw-lon assessed as reduction of amyloid-beta-42 level by sandwich immunoassay; type: cell-based, Homo sapiens
[1] = molecular target: T1, Gamma-secretase (Homo sapiens) (UniProt Q96BI3+Q9NZ42+Q8WW43+P49768+Q92542+P49810); test: Modulation of gamma-secretase expressed in HEK293 cells co-expressing APPsw-lon assessed as reduction of total amyloid beta/amyloid-beta-42 ratio by sandwich immunoassay; type: cell-based
Rattus norvegicus [2] = test: Antialzheimer's activity in rat assessed as reduction of amyloid-beta-42 level in CSF at 10 mg/kg, po after 3 hrs by AlphaLISA amyloid assay; type: functional
[3] = AUC (0 to 6 hrs) in rat plasma at 10 mg/kg, po; type: ADME, organism-based; design: time < 6 hr, dose 10 mg/kg, route oral
[4] = Ratio of drug level in brain to plasma rat at 10 mg/kg, po after 6 hrs; type: ADME, organism-based; design: dose 10 mg/kg, route oral; conditions: read-out: BPR
[5] = Drug level in rat brain at 10 mg/kg, po after 6 hrs; type: ADME, organism-based; design: dose 10 mg/kg, route oral; conditions: read-out: Drug uptake
[6] = Plasma concentration in rat at 10 mg/kg, po after 3 hrs; type: ADME, organism-based; design: dose 10 mg/kg, route oral
Rattus norvegicus [7] = organism: Rattus norvegicus; test: Toxicity in rat assessed as biomarker changes; type: organism-based; conditions: in vivo
Rattus norvegicus [8] = test: Antialzheimer's activity in po dosed rat assessed as reduction of amyloid-beta-42 level in CSF after 3 hrs by AlphaLISA amyloid assay; type: functional, organism-based
hERG (KCNH2) = hERG (KCNH2) (Homo sapiens, UniProt Q12809); test: Inhibition of human ERG at 10 uM
Rattus norvegicus [9] = organism: Rattus norvegicus; test: Toxicity in rat assessed as Notch-related side effects; type: organism-based; conditions: in vivo
[10] = Volume of distribution at steady state in rat; type: ADME, organism-based; conditions: in vivo, read-out: Vdss
[11] = molecular target: T1, Gamma-secretase (Homo sapiens); test: Modulation of gamma-secretase-mediated Notch processing expressed in HEK293 cells co-expressing human Notch1 protein up to 50 uM; type: cell-based
[12] = Clearance in rat; type: ADME, organism-based; conditions: in vivo
Canis familiaris = organism: Canis familiaris; test: Cardiotoxicity in dog assessed as effect on QTc intervals; type: toxicity, organism-based, Canis lupus familiaris; conditions: in vivo
Caco-2 = test: Permeability across human Caco2 cells; type: ADME, cell-based
[13] = Half life in rat; type: ADME, organism-based; conditions: in vivo
[14] = Activity at p-glycoprotein
[15] = Oral bioavailability in rat; type: ADME, organism-based; conditions: in vivo
[16] = Inhibition of CYP450; type: ADME
[17] = molecular target: T2, Nuclear receptor subfamily 1 group I member 2 (Homo sapiens, UniProt O75469); test: Induction of PXR
T2 sequence (O75469 whole entry): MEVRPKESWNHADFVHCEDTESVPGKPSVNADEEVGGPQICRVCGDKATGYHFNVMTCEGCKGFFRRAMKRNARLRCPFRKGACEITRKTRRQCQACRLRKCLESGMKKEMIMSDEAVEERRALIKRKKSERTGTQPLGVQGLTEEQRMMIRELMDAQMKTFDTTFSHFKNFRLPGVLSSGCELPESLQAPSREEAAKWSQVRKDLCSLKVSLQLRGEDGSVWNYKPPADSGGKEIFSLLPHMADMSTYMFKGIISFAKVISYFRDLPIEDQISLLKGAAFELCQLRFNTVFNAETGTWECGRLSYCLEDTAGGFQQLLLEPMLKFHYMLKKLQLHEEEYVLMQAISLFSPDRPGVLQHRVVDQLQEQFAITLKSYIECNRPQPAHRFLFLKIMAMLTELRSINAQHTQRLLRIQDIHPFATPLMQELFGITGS

[18] = Drug level in rat brain at 10 mg/kg, po after 3 hrs; type: ADME, organism-based; design: dose 10 mg/kg, route oral; conditions: read-out: Drug uptake

hERG (KCNH2), sequence (Q12809 whole entry): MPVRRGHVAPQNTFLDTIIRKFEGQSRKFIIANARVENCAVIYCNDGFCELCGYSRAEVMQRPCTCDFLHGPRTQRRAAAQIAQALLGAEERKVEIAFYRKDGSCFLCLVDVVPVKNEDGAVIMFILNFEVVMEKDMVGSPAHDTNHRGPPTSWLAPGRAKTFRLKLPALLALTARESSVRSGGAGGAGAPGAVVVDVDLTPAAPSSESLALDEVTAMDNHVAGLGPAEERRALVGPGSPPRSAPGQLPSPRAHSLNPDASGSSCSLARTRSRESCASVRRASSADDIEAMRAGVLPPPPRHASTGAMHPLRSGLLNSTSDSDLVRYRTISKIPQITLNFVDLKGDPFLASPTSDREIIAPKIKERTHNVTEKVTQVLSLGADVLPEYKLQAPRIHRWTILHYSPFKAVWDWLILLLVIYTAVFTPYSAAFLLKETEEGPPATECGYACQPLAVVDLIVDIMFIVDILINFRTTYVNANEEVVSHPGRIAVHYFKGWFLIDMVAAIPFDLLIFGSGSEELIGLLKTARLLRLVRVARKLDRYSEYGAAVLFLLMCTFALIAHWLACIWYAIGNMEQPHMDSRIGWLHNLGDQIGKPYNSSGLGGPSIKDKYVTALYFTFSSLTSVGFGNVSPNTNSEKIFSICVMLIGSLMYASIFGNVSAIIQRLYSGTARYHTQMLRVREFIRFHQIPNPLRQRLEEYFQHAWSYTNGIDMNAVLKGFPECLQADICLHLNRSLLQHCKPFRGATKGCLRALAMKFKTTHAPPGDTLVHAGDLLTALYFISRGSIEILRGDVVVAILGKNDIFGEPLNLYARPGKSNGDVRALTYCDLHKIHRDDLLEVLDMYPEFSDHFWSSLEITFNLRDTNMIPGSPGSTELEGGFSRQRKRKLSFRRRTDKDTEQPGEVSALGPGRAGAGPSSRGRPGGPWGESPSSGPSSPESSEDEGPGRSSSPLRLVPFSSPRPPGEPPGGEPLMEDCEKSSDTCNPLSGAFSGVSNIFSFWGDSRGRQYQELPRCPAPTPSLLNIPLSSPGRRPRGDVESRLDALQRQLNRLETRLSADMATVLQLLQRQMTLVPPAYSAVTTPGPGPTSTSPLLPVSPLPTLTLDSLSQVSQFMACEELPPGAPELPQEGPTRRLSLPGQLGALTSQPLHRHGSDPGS

| Compound | pIC50 (Gamma-secretase) | Ratio [1] | other results |
| --- | --- | --- | --- |
| COc1cc(/C=C2\CCCN3CC(CO)ON=C23)ccc1-n1cnc(C)c1 (racemic) | 5.27 | 4 | – |
| COc1cc(/C=C2\CCCN3C2=NOC3(CO)c2ccc(F)cc2)ccc1-n1cnc(C)c1 (stereo not drawn) | 7.12 | 289 | – |
| COc1cc(/C=C2\CCCN3C2=NOC[C@@H]3CO)ccc1-n1cnc(C)c1 | 5.48 | 6 | – |
| COc1cc(/C=C2\O[C@H](C)CN3C2=NOC[C@@H]3c2cc(F)cc(F)c2)ccc1-n1cnc(C)c1 | 7.80 | 1220 | – |
| COc1cc(/C=C2\CCCN3CC(CO[Si](c4ccccc4)(c4ccccc4)C(C)(C)C)ON=C23)ccc1-n1cnc(C)c1 (racemic) | 7.25 | 80 | – |
| COc1cc(/C=C2\CCCN3C2=NOC[C@@H]3CC(=O)N2CCCCC2)ccc1-n1cnc(C)c1 | 5.82 | 13 | – |
| COc1cc(/C=C2\CCCN3C2=NOC[C@@H]3C2CCOCC2)ccc1-n1cnc(C)c1 | 5.72 | 11 | – |
| COc1cc(/C=C2\CCCN3C2=NOCC32CCOc3ccc(F)cc32)ccc1-n1cnc(C)c1 (racemic) | 6.40 | 50 | – |
| COc1cc(/C=C2\CCCN3CC(c4cccc5ccccc45)ON=C23)ccc1-n1cnc(C)c1 (racemic) | 6.89 | 158 | – |
| COc1cc(/C=C2\CCCN3C2=NOC[C@@H]3CN2CCOCC2)ccc1-n1cnc(C)c1 | 5.43 | 5 | – |
| COc1cc(/C=C2\CCCN3C2=NOC[C@@H]3c2cc(F)c(F)c(F)c2)ccc1-n1cnc(C)c1 | 7.48 | 607 | Activity (Rattus norvegicus [7]): Non-toxic; inhibition (Rattus norvegicus [8]): Dose-dependent effect; AUC(0-t) at 6 h [3]: 87.4 µM·h; inhibition at 10 µM (hERG (KCNH2)): 76%; Activity (Rattus norvegicus [9]): Non-toxic; Kp at 6 h [4]: 0.4; concentration at 6 h [5]: 2910 ng/g; Vd [10]: 0.4 L/kg; Activity [11]: inactive; inhibition in vivo at 10 mg/kg (Rattus norvegicus [2]): 62%; clearance [12]: 1.4 mL/min/kg; Activity (Canis familiaris): Non-toxic; permeability (Caco-2): permeable; half-life [13]: 3.5 h; concentration at 3 h [6]: 10.7 µM; Activity [14]: inactive; bioavailability [15]: 100% |
| COc1cc(/C=C2\CCCN3C(=O)CON=C23)ccc1-n1cnc(C)c1 | 5.60 | 8 | – |
| COc1cc(/C=C2\CCCN3CC(c4cnccn4)ON=C23)ccc1-n1cnc(C)c1 (racemic) | 5.05 | 2 | – |
| COc1cc(/C=C2\CCCN3C2=NOC[C@@H]3COCc2ccccc2)ccc1-n1cnc(C)c1 | 7.00 | 120 | – |
| COc1cc(/C=C2\CCCN3C2=NOCC3C(O)c2ccc(Cl)cc2)ccc1-n1cnc(C)c1 (stereo not drawn) | 6.52 | 49 | – |
| COc1cc(/C=C2\CCCN3C2=NOCC3(C)c2ccc(F)cc2)ccc1-n1cnc(C)c1 (racemic) | 6.64 | 69 | – |
| COc1cc(/C=C2\O[C@@H](C)CN3C2=NOC[C@@H]3c2cc(F)c(F)c(F)c2)ccc1-n1cnc(C)c1 | 7.34 | 320 | – |
| COc1cc(/C=C2\CCCN3C2=NOC[C@@H]3Cc2ccccc2)ccc1-n1cnc(C)c1 | 7.10 | 238 | – |
| COc1cc(/C=C2\CCCN3C[C@H](c4cc(F)c(F)c(F)c4)ON=C23)ccc1-n1cnc(C)c1 | 7.32 | 328 | AUC(0-t) at 6 h [3]: 24.3 µM·h; inhibition at 10 µM (hERG (KCNH2)): 83%; Kp at 6 h [4]: 1; concentration at 6 h [5]: 1880 ng/g; inhibition (INH) [16]: Not Active; inhibition in vivo at 10 mg/kg (Rattus norvegicus [2]): 45%; Activity [17]: Not Active |
| COc1cc(/C=C2\CCCN3C2=NOC[C@@H]3CC(C)C)ccc1-n1cnc(C)c1 | 7.14 | 149 | – |
| COc1cc(/C=C2\CCCN3CC(COCc4ccccc4)ON=C23)ccc1-n1cnc(C)c1 (racemic) | 6.60 | 80 | – |
| CCc1csc(C[C@H]2CON=C3/C(=C/c4ccc(-n5cnc(C)c5)c(OC)c4)CCCN32)n1 | 5.19 | 3 | – |

Second part, led by results:

| pIC50 (Gamma-secretase) | Ratio [1] | Compound | other results |
| --- | --- | --- | --- |
| 7.96 | 1170 | COc1cc(/C=C2\O[C@H](C)CN3C2=NOC[C@@H]3c2cc(F)c(F)c(F)c2)ccc1-n1cnc(C)c1 | inhibition in vivo at 10 mg/kg (Rattus norvegicus [2]): 60% |
| 6.09 | 24 | COc1cc(/C=C2\CCCN3C2=NOC[C@@H]3CNC(=O)c2cccc(Cl)c2)ccc1-n1cnc(C)c1 | – |
| 7.36 | 459 | COc1cc(/C=C2\CCCN3C2=NOC[C@@H]3c2cc(F)c(OC)c(F)c2)ccc1-n1cnc(C)c1 | AUC(0-t) at 6 h [3]: 22.7 µM·h; Kp at 6 h [4]: 1.1; concentration at 6 h [5]: 268 ng/g; inhibition in vivo at 10 mg/kg (Rattus norvegicus [2]): 26%; concentration at 3 h [6]: 6.3 µM |
| 6.85 | 147 | COc1cc(/C=C2\CCCN3CC(COc4ccccc4)ON=C23)ccc1-n1cnc(C)c1 (racemic) | – |
| 5.96 | 18 | COc1cc(/C=C2\CCCN3C(=O)C(c4cc(F)cc(F)c4)ON=C23)ccc1-n1cnc(C)c1 (racemic) | – |
| 6.68 | 91 | COc1cc(/C=C2\CCCN3CC(c4ccccc4)ON=C23)ccc1-n1cnc(C)c1 (racemic) | – |
| 4.88 | 2 | COc1cc(/C=C2\CCCN3C2=NOCC3(CO)c2ccc(F)cc2)ccc1-n1cnc(C)c1 (racemic) | – |
| 5.17 | 3 | COc1cc(/C=C2\CCCN3CC(c4nccn4C)ON=C23)ccc1-n1cnc(C)c1 (racemic) | – |
| 4.72 | 1 | COc1cc(/C=C2\CCCN3C2=NOC[C@@H]3CS(C)(=O)=O)ccc1-n1cnc(C)c1 | – |
| 7.46 | 550 | COc1cc(/C=C2\O[C@@H](C)CN3C2=NOC[C@@H]3c2cc(F)cc(F)c2)ccc1-n1cnc(C)c1 | – |
| 6.28 | 34 | COc1cc(/C=C2\CCCN3C2=NOC[C@@H]3C(C)C)ccc1-n1cnc(C)c1 | – |
| 7.08 | 241 | COc1cc(/C=C2\CCCN3CC(Cc4ccccc4)ON=C23)ccc1-n1cnc(C)c1 (racemic) | – |
| 7.41 | 507 | COc1cc(/C=C2\CCCN3C2=NOC[C@@H]3c2cc(F)cc(Cl)c2)ccc1-n1cnc(C)c1 | AUC(0-t) at 6 h [3]: 24.6 µM·h; Kp at 6 h [4]: 1.1; concentration at 6 h [5]: 1340 ng/g; inhibition in vivo at 10 mg/kg (Rattus norvegicus [2]): 62%; concentration at 3 h [6]: 7.2 µM |
| 7.24 | 223 | COc1cc(/C=C2\CCCN3C2=NOC32CCOc3ccc(F)cc32)ccc1-n1cnc(C)c1 (stereo not drawn) | – |
| 7.06 | 210 | COc1cc(/C=C2\CCCN3C2=NOC[C@@H]3c2ccccc2)ccc1-n1cnc(C)c1 | AUC(0-t) at 6 h [3]: 17.6 µM·h; Kp at 6 h [4]: 0.9; concentration at 6 h [5]: 539 ng/g; inhibition in vivo at 10 mg/kg (Rattus norvegicus [2]): 39%; concentration at 3 h [18]: 2.8 µM; concentration at 3 h [6]: 6.2 µM |
| 5.51 | 7 | COc1cc(/C=C2\CCCN3CCON=C23)ccc1-n1cnc(C)c1 | – |
| 7.43 | 385 | COc1cc(/C=C2\CCCN3C2=NOC[C@@H]3c2ccc(F)cc2)ccc1-n1cnc(C)c1 | AUC(0-t) at 6 h [3]: 86.5 µM·h; Kp at 6 h [4]: 0.8; concentration at 6 h [5]: 2850 ng/g; inhibition in vivo at 10 mg/kg (Rattus norvegicus [2]): 53%; concentration at 3 h [18]: 7.7 µM; concentration at 3 h [6]: 6.7 µM |
| 7.12 | 265 | COc1cc(/C=C2\CCCN3CC(C(O)c4cc(F)cc(F)c4)ON=C23)ccc1-n1cnc(C)c1 (racemic) | – |
| 7.54 | 488 | COc1cc(/C=C2\CCCN3C2=NO[C@]3(CO)c2ccc(F)cc2)ccc1-n1cnc(C)c1 | – |
| 6.92 | 162 | COc1cc(/C=C2\CCCN3C2=NOC[C@@H]3C(C)(C)C)ccc1-n1cnc(C)c1 | – |
| 7.24 | 237 | COc1cc(/C=C2\CCCN3C2=NOC3(C)c2ccc(F)cc2)ccc1-n1cnc(C)c1 (stereo not drawn) | – |
